Laboratory results: patent US11369614B2, “Telodendrimers with riboflavin moieties and nanocarriers and methods of making and using same” (priority 2017, dated 2022)

Test system: SKOV3 xenograft tumor
Assay: In vivo and ex vivo tumor targeting by fluorescence imaging
Design: species or system nude mice
Conditions: i.v.
Experimental: Raji lymphoma, MDA-MB-231, and SKOV3 xenograft tumor bearing mice model were established by subcutaneous injection of 1×10^7 cells in 100 μL of Matrigel and PBS (1:1 v/v) at the right or left flank of female nude mice aged 4-6 weeks. […] Then the DiD-DOX co-loaded Rf-containing nanoformulations were filtered with 0.22 am sterile filter. Free DiD in PBS was used as the control group. All the formulations were intravenously injected through tail vein. The mice were anaesthetized and imaged by IVIS® (In vivo Imaging System) 200 (perkinElmer) at 0.5, 1, 2, 4, 8, 24, 48, 72 h different time points with the ex/em 625/700 nm. Finally, the mice were euthanized, tumor and all the major organs were taken out for ex vivo imaging. Living Image software (Caliper Life Sciences) were used to define and measure the fluorescence intensity in the place of interest.
Mice were euthanized in the following day. […] The nuclei were stained by DAPI.

SMILES: CCCCCCCCCCCCCCCCCCN1/C(=C/C=C/C=C/C2=[N+](CCCCCCCCCCCCCCCCCC)c3ccccc3C2(C)C)C(C)(C)c2ccccc21.[O-][Cl+3]([O-])([O-])[O-] [free DiD, 1,1′-dioctadecyl-3,3,3,3′,3′-tetramethylindodicarbocyanine perchlorate]
- tumor accumulation (in vivo imaging): No specific tumor accumulation
